Assay results: US11667701B2, “Anti-PfRH5 antibodies and antigen-binding fragments thereof” (priority 2018, dated 2023)

System: Plasmodium falciparum strain 3D7
Assay: Growth inhibition assay with or without chloroquine, strain 3D7 (Example 3)
Type: cell-based
Protocol: Each P. falciparum strain (BEI Resources) was first synchronized with 5% D-sorbitol following standard protocols at 3-5% hematocrit and 1-2% parasitaemia 20-24 hours prior to the start of the assay. Infected human erythrocytes were prepared at a starting parasitaemia of 0.4-0.7% and 2% hematocrit. Infected erythrocytes were combined with PfRH5-specific or control antibodies starting at a concentration of 666.67 nM with 1:5 serial dilution for each IgG1 antibody and chloroquine at one of two concentrations, 4.91 or 6.58 nM. […] The parasites were grown for 40-48 h until the schizont stage was reached (one complete life cycle). Parasite growth was stopped with three washes of cold PBS. Final parasitaemia was determined by measuring the parasite lactate dehydrogenase (LDH) activity. Percent growth inhibition was expressed relative to uninfected erythrocytes.

CCN(CC)CCCC(C)Nc1ccnc2cc(Cl)ccc12 (stereo not shown) [chloroquine, reference compound]
1025 of chloroquine with the susceptible 3D7 strain: 4.91 nM
